Experiment: xn = mol fraction of the nth substance listed
Details: 298.15 K, Liquid, Vibrating tube method

CCCCCCCC [octane] + c1ccccc1
mass density [kg/m3]
Details | x1 = 0.1097 | x1 = 0.2036 | x1 = 0.2984 | x1 = 0.4069 | x1 = 0.5027 | x1 = 0.5904 | x1 = 0.6989 | x1 = 0.7964 | x1 = 0.904 | x1 = 1
100 kPa | 838.3 | 813.5 | 792.3 | 771.6 | 755.7 | 743 | 729.1 | 718.2 | 707.3 | 698.7
2130 kPa | 839.9 | 815.2 | 794 | 773.3 | 757.4 | 744.8 | 730.9 | 719.9 | 709.1 | 700.4
4150 kPa | 841.6 | 816.9 | 795.7 | 775.1 | 759.2 | 746.5 | 732.6 | 721.7 | 710.8 | 702.2
6180 kPa | 843.3 | 818.6 | 797.4 | 776.8 | 760.9 | 748.2 | 734.3 | 723.4 | 712.4 | 703.8
8210 kPa | 844.9 | 820.2 | 799.1 | 778.5 | 762.5 | 749.9 | 735.9 | 725 | 714.1 | 705.4
10230 kPa | 846.5 | 821.8 | 800.7 | 780.1 | 764.2 | 751.5 | 737.6 | 726.7 | 715.7 | 707
11250 kPa | 847.3 | 822.7 | 801.5 | 780.9 | 765 | 752.3 | 738.4 | 727.5 | 716.5 | 707.8
12260 kPa | 848.1 | 823.5 | 802.4 | 781.7 | 765.8 | 753.2 | 739.2 | 728.3 | 717.3 | 708.6
14290 kPa | 849.7 | 825.1 | 803.9 | 783.4 | 767.4 | 754.7 | 740.8 | 729.8 | 718.8 | 710.1
16310 kPa | 851.2 | 826.6 | 805.5 | 784.9 | 769 | 756.3 | 742.4 | 731.4 | 720.4 | 711.7
18340 kPa | 852.7 | 828.1 | 807 | 786.4 | 770.5 | 757.8 | 743.8 | 732.9 | 721.9 | 713.1
20370 kPa | 854.2 | 829.6 | 808.5 | 788 | 772 | 759.3 | 745.3 | 734.4 | 723.3 | 714.6
22390 kPa | 855.7 | 831.1 | 810 | 789.4 | 773.4 | 760.8 | 746.8 | 735.8 | 724.8 | 715.9
24420 kPa | 857.1 | 832.6 | 811.5 | 790.8 | 774.9 | 762.2 | 748.2 | 737.2 | 726.2 | 717.4
26450 kPa | 858.5 | 834 | 812.9 | 792.3 | 776.3 | 763.6 | 749.6 | 738.7 | 727.5 | 718.8
28470 kPa | 859.9 | 835.4 | 814.3 | 793.7 | 777.7 | 765 | 751 | 740 | 728.9 | 720.1
29490 kPa | 860.6 | 836.1 | 815 | 794.3 | 778.4 | 765.7 | 751.7 | 740.7 | 729.6 | 720.8
30500 kPa | 861.3 | 836.8 | 815.7 | 795 | 779.1 | 766.4 | 752.4 | 741.4 | 730.2 | 721.4
32530 kPa | 862.6 | 838.1 | 817 | 796.4 | 780.4 | 767.7 | 753.7 | 742.7 | 731.5 | 722.7
34550 kPa | 864 | 839.5 | 818.4 | 797.8 | 781.8 | 769.1 | 755 | 744.1 | 732.9 | 724
36580 kPa | 865.3 | 840.8 | 819.7 | 799.1 | 783.1 | 770.4 | 756.4 | 745.4 | 734.2 | 725.3
38600 kPa | 866.6 | 842.1 | 821 | 800.4 | 784.4 | 771.7 | 757.6 | 746.5 | 735.4 | 726.5
39620 kPa | 867.3 | 842.7 | 821.6 | 801 | 785 | 772.3 | 758.2 | 747.1 | 736 | 727.1
